The text below walks through data of publication PMC7796184, “Phytochemical Characterization, In Vitro Anti-Inflammatory, Anti-Diabetic, and Cytotoxic Activities of the Edible Aromatic Plant; Pulicaria jaubertii” (Molecules, 2021).

In brackets after ≈: the same amount, converted by molar mass.

One assay relates to red blood cells (RBCs). Put plainly: Membrane stabilizing activity, hypotonic solution-induced hemolysis of RBCs. It counts as cell-based, rats. The note with it: Erythrocyte, 10 min; rat RBCs, hypotonic solution pH 7.4, 10 min; triplicate; read-out: Membrane stabilization IC50 (inhibition of RBCs hemolysis). How it is done: The method was conducted according to the literature. Erythrocyte suspension was prepared by withdrawing blood samples from rats with heparinized syringes through cardiac puncture. Then, phosphate buffer was used to wash blood samples three times with centrifugation after each washing at 3000 rpm for 10 min. […] Control samples were prepared by similar manner without extracts or indomethacin. Afterward, previous mixtures were withstanding for 10 min in room condition and subjected to 10 min centrifugation at 3000 rpm.

Another assay deals with U937 human monocytes. The experiment in a line: Histamine release assay (EIA kit) in PMA-treated U937 cells. It counts as cell-based. The note with it: U-937, 20 nM Phorbol Myristate Acetate, 1 h, triplicate, read-out: Histamine release inhibition IC50. How it is done: In accordance with literature, extracts or standard diclofenac (7.81–1000 μg/mL) were added to U937 cells seeded in a 96-well plate in a concentration of 50,000 in presence or absence of 20 nM Phorbol Myristate Acetate. After 1 h, the treated and untreated cell cultures supernatants were collected and centrifuged at 10,000 rpm for 5 min at 4 °C. Then the samples were evaluated for released histamine by a commercially available EIA kit (SPI-Bio, Montigny le Bretonneux, France).

Assay [1] relates to hepatocarcinoma (HepG-2) cell line. The experiment in a line: cells. The note with it: Homo sapiens, HepG2, read-out: Cytotoxicity IC50.
Experimental: (§1) All cells were obtained from the American Type Culture Collection (ATCC, Rockville, MD, USA) and were cultured on RPMI 1640 medium supplemented with 10% inactivated fetal calf serum and 50 μg/mL gentamycin. The cells were maintained at 37 °C in a humidified atmosphere with 5% CO2 and were sub cultured two to three times a week. Cell viability percentage was calculated by the equation: Cell viability % = Ac/At × 100(5) where Ac = Absorbance obtained from of control cells, At = Absorbance obtained from treated cells.
The test system of assay [2] is breast carcinoma (MCF-7) cell line. The experiment in a line: cells. The note with it: Homo sapiens, MCF7, read-out: Cytotoxicity IC50.
Experimental: as §1
For assay [3], the system named is prostate carcinoma (PC-3) cell line. Put plainly: cells. The note with it: Homo sapiens, PC-3, read-out: Cytotoxicity IC50.
Experimental: as §1

Turning to `COc1ccc2c(c1)c(CC(=O)O)c(C)n2C(=O)c1ccc(Cl)cc1` [Indomethacin], in the assay with red blood cells (RBCs), the IC50 (as a rule, the point on the concentration scale where inhibition reaches its midpoint) came out at 17 ± 0.72 µg/mL (≈ 47.6 µM).

For `O=C(O)Cc1ccccc1Nc1c(Cl)cccc1Cl` [Diclofenac], the IC50 in the assay on U937 human monocytes was determined as 17.9 ± 1.6 µg/mL (≈ 60.6 µM).

On to `CC[C@]1(O)C[C@@H]2CN(CCc3c([nH]c4ccccc34)[C@@](C(=O)OC)(c3cc4c(cc3OC)N(C)[C@H]3[C@@](O)(C(=O)OC)[C@H](OC(C)=O)[C@]5(CC)C=CCN6CC[C@]43[C@@H]65)C2)C1` [Vinblastine], for which the results for the IC50 in assay [1], in assay [2] and in assay [3] were 4.6 ± 0.17 µg/mL (≈ 5.67 µM), 4.6 ± 0.18 µg/mL (≈ 5.67 µM) and 5.5 ± 0.4 µg/mL (≈ 6.78 µM), respectively.
